Test results taken from US20240287138A1, “CYCLIC PEPTIDES FOR INHIBITING TNF RECEPTOR 1 ACTIVITY” (Merck Sharp & Dohme LLC, priority 2023, published 2024).
pIC50, pKd: −log10 of the molar value. Numbered stars: 1 amine (or outer) side, 2 acyl side, 3 side chain; on linkers, the order of the positions; unused ones are H or OH. Bridge positions count the residues as written; N and C are the ends. Square brackets hold non-standard residues; d marks the D form. Peptide text beside a SMILES is read from it. Trp(βS-Me,7-OMe) = COc1cccc2c([C@H](C)[C@H](N)C(=O)O)c[nH]c12; Ala(1-bicyclo(1.1.1)pentyl) = N[C@@H](CC12CC(C1)C2)C(=O)O; Phe(4-CH2COOH) = N[C@@H](Cc1ccc(CC(=O)O)cc1)C(=O)O; Trp(4-Cl) = N[C@@H](Cc1c[nH]c2cccc(Cl)c12)C(=O)O; Trp(7-Cl) = N[C@@H](Cc1c[nH]c2c(Cl)cccc12)C(=O)O; Phe(4-CONH2) = NC(=O)c1ccc(C[C@H](N)C(=O)O)cc1; Phe(4-COOH) = N[C@@H](Cc1ccc(C(=O)O)cc1)C(=O)O; Trp(7-aza) = N[C@@H](Cc1c[nH]c2ncccc12)C(=O)O; Phe(4-CH2NH2) = NCc1ccc(C[C@H](N)C(=O)O)cc1; Pip(5R-OH) = O=C(O)[C@@H]1CC[C@@H](O)CN1; αMeW = C[C@](N)(Cc1c[nH]c2ccccc12)C(=O)O; X1 = O=C([C@@H]1CC[C@H](N[*:1])C1)[*:2]; 1Nal = N[C@@H](Cc1cccc2ccccc12)C(=O)O; 2Nal = N[C@@H](Cc1ccc2ccccc2c1)C(=O)O; Pip(4-aza) = O=C(O)[C@@H]1CNCCN1; hPhe = N[C@@H](CCc1ccccc1)C(=O)O; 3Pal = N[C@@H](Cc1cccnc1)C(=O)O; 4Pal = N[C@@H](Cc1ccncc1)C(=O)O; NMeE = CN[C@@H](CCC(=O)O)C(=O)O; NMeDab = CN[C@@H](CCN)C(=O)O; Dap(Me) = CNC[C@H](N)C(=O)O; NEtAla = CCN[C@@H](C)C(=O)O; αMeS = C[C@](N)(CO)C(=O)O; NMeA = CN[C@@H](C)C(=O)O; Nle = CCCC[C@H](N)C(=O)O; Dap = NC[C@H](N)C(=O)O; Sar = CNCC(=O)O

Key:
[1] = biological target: T1, human soluble TNFR1 (sTNFR1) (Homo sapiens, UniProt P19438); assay: Human sTNFR1-peptide displacement assay (LanthaScreen Eu TR-FRET binding assay)
T1 construct: made in house; host or cells: Sf21 (baculovirus)
T1 sequence (P19438 with tags, fused parts or gaps): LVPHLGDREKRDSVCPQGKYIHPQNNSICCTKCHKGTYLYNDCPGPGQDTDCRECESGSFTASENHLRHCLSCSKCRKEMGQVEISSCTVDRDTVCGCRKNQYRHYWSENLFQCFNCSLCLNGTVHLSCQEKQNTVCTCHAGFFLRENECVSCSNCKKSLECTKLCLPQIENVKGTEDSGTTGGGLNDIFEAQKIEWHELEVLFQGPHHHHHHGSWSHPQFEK
In short: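 Readout is the 665/615 nm TR-FRET ratio (Eu anti-His donor, streptavidin-Alexa647 acceptor), normalized to DMSO and saturating displacer, fit by Morrison-based five-parameter logistic for Kd^app. His-tagged sTNFR1 (1-211) prebound to 100 nM biotinylated peptide SEQ ID NO.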

[2] = biological target: T2, human TNFR1 extracellular domain (ECD) protein (Homo sapiens, UniProt P19438); assay: SPR binding affinity to captured human TNFR1 ECD
T2 construct: HRV 3C protease cleavage site (C); 6His (C, cleaved yes); made in house; host or cells: Sf21 insect cells (baculovirus), secreted
T2 sequence (P19438 30-211): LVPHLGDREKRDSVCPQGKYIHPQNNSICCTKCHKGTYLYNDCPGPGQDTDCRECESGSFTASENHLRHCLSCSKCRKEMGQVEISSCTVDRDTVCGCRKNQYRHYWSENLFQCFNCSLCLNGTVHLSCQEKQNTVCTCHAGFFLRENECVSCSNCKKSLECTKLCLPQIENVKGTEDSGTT
In short: (§1)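 SPR kinetics: peptides over captured avi-biotinylated receptor ECDs, TNFR1 for affinity, TNFR2 run in parallel for off-target binding. Running buffer HEPES pH 7.4 with 150 mM NaCl, 3 mM EDTA, 0.05% P20, 2% DMSO; surface regenerated between analytes. Affinity derived from kon/koff.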

[3] = biological target: T3, human TNFR2 ECD protein (Homo sapiens, UniProt P20333); assay: SPR off-target binding (selectivity) to human TNFR2 ECD
T3 construct: HRV 3C protease cleavage site (C); 6His (C, cleaved yes); made in house; host or cells: Sf21 insect cells (baculovirus), secreted
T3 sequence (P20333 23-257): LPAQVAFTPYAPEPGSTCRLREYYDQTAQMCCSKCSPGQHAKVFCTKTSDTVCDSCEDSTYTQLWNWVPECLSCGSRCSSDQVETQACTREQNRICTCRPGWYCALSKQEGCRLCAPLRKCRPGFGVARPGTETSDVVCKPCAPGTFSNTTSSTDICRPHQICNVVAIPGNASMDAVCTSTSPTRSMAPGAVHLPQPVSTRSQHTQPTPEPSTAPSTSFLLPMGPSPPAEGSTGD
In short: as §1

SMILES | pIC50 [1] | pKd [2] | pKd [3] | pKd [1]
CCCC[C@@H]1NC(=O)CSC[C@@H](C(N)=O)NC(=O)[C@](C)(Cc2c[nH]c3ccccc23)NC(=O)CN(C)C(=O)[C@H](Cc2ccc(O)cc2)NC(=O)[C@H](Cc2ccc(CC(=O)O)cc2)NC(=O)[C@](C)(CO)NC(=O)[C@H](Cc2c[nH]c3c(Cl)cccc23)NC(=O)[C@H](Cc2ccncc2)NC(=O)[C@H](CC(N)=O)NC(=O)[C@H](CCC(=O)O)N(C)C(=O)[C@H](Cc2c[nH]c3ncccc23)NC(=O)[C@H](CO)NC(=O)[C@H](Cc2ccc(CN)cc2)NC1=O [SEQ ID NO. 224] ({CH2CO}-[Nle][Phe(4-CH2NH2)]S[Trp(7-aza)][NMeE]N[4Pal][Trp(7-Cl)][αMeS][Phe(4-CH2COOH)]Y[Sar][αMeW]C-NH2; thioether N-14) | 8.77 | 9.40 | < 6.00 | –
C[C@H]1C(=O)N[C@@H](CC(N)=O)C(=O)N[C@@H](Cc2ccncc2)C(=O)N[C@@H](Cc2ccc3ccccc3c2)C(=O)N[C@@](C)(CO)C(=O)N[C@@H](Cc2ccc(C(=O)O)cc2)C(=O)N[C@@H](Cc2ccc(O)cc2)C(=O)N(C)CC(=O)N[C@@H](Cc2c[nH]c3ccccc23)C(=O)N[C@H](C(N)=O)CSCC(=O)N[C@@H](CCCCN)C(=O)N[C@@H](Cc2ccncc2)C(=O)N[C@@H](CO)C(=O)N[C@@H](Cc2cccc3ccccc23)C(=O)N1C [SEQ ID NO. 227] ({CH2CO}-K[4Pal]S[1Nal][NMeA]N[4Pal][2Nal][αMeS][Phe(4-COOH)]Y[Sar]WC-NH2; thioether N-14) | 8.40 | 8.64 | < 6.00 | –
CCCC[C@@H]1NC(=O)[C@@H]2CC[C@@H](C2)NC(=O)[C@H]([C@@H](C)c2c[nH]c3c(OC)cccc23)NC(=O)CN(C)C(=O)[C@H](Cc2ccc(C(N)=O)cc2)NC(=O)[C@H](Cc2ccc(C(N)=O)cc2)NC(=O)[C@](C)(CO)NC(=O)[C@H](Cc2c[nH]c3c(Cl)cccc23)NC(=O)[C@H](Cc2ccncc2)NC(=O)[C@H](CC(N)=O)NC(=O)[C@H](CCC(=O)O)N(C)C(=O)[C@H](Cc2c[nH]c3ccccc23)NC(=O)[C@@H]2CC[C@@H](O)CN2C(=O)[C@H](Cc2ccncc2)NC1=O [SEQ ID NO. 229] (cyclo([4Pal][Trp(7-Cl)][αMeS][Phe(4-CONH2)][Phe(4-CONH2)][Sar][Trp(βS-Me,7-OMe)][X1][Nle][4Pal][Pip(5R-OH)]W[NMeE]N)) | – | 9.85 | < 6.00 | 10.00
CCCC[C@@H]1NC(=O)CSC[C@@H](C(N)=O)NC(=O)[C@](C)(Cc2c[nH]c3ccccc23)NC(=O)CN(C)C(=O)[C@H](Cc2ccc(O)cc2)NC(=O)[C@H](Cc2ccc(C(=O)O)cc2)NC(=O)[C@](C)(CO)NC(=O)[C@H](Cc2c[nH]c3c(Cl)cccc23)NC(=O)[C@H](Cc2ccncc2)NC(=O)[C@H](CC(N)=O)NC(=O)[C@H](CCC(=O)O)N(C)C(=O)[C@H](Cc2c[nH]c3ncccc23)NC(=O)[C@H](CCN)N(C)C(=O)[C@H](Cc2ccncc2)NC1=O [SEQ ID NO. 231] ({CH2CO}-[Nle][4Pal][NMeDab][Trp(7-aza)][NMeE]N[4Pal][Trp(7-Cl)][αMeS][Phe(4-COOH)]Y[Sar][αMeW]C-NH2; thioether N-14) | 8.58 | 8.72 | < 6.00 | –
CCN1C(=O)[C@H](Cc2c[nH]c3c(Cl)cccc23)NC(=O)[C@H](CO)NC(=O)[C@H](Cc2ccncc2)NC(=O)[C@H](CC23CC(C2)C3)NC(=O)CSC[C@@H](C(N)=O)NC(=O)[C@H](Cc2c[nH]c3ncccc23)NC(=O)CN(C)C(=O)[C@H](Cc2ccc(O)cc2)NC(=O)[C@H](Cc2ccc(C(=O)O)cc2)NC(=O)[C@](C)(CO)NC(=O)[C@H](Cc2c[nH]c3ncccc23)NC(=O)[C@H](Cc2ccc(C(=O)O)cc2)NC(=O)[C@H](CC(N)=O)NC(=O)[C@@H]1C [SEQ ID NO. 232] ({CH2CO}-[Ala(1-bicyclo(1.1.1)pentyl)][4Pal]S[Trp(7-Cl)][NEtAla]N[Phe(4-COOH)][Trp(7-aza)][αMeS][Phe(4-COOH)]Y[Sar][Trp(7-aza)]C-NH2; thioether N-14) | 8.50 | 9.15 | < 6.00 | 8.67
CN1CC(=O)N[C@@H](Cc2c[nH]c3ccccc23)C(=O)N[C@H](C(N)=O)CSCC(=O)N[C@@H](CCc2ccccc2)C(=O)N[C@@H](Cc2ccncc2)C(=O)N[C@@H](CN)C(=O)N[C@@H](Cc2c[nH]c3ccccc23)C(=O)N2CCC[C@@H]2C(=O)N[C@@H](CC(N)=O)C(=O)N[C@@H](Cc2ccncc2)C(=O)N[C@@H](Cc2ccc3ccccc3c2)C(=O)N[C@@](C)(CO)C(=O)N[C@@H](Cc2ccc(C(=O)O)cc2)C(=O)N[C@@H](Cc2cccnc2)C1=O [SEQ ID NO. 233] ({CH2CO}-[hPhe][4Pal][Dap]W[dP]N[4Pal][2Nal][αMeS][Phe(4-COOH)][3Pal][Sar]WC-NH2; thioether N-14) | 8.58 | 9.11 | < 6.00 | –
CCCC[C@@H]1NC(=O)CSC[C@@H](C(N)=O)NC(=O)[C@](C)(Cc2c[nH]c3ccccc23)NC(=O)CN(C)C(=O)[C@H](Cc2ccc(O)cc2)NC(=O)[C@H](Cc2ccc(C(=O)O)cc2)NC(=O)[C@](C)(CO)NC(=O)[C@H](Cc2c[nH]c3c(Cl)cccc23)NC(=O)[C@H](Cc2ccncc2)NC(=O)[C@H](CC(N)=O)NC(=O)[C@H](CCC(=O)O)N(C)C(=O)[C@H](Cc2c[nH]c3ncccc23)NC(=O)[C@H](CNC)NC(=O)[C@H](Cc2ccncc2)NC1=O [SEQ ID NO. 235] ({CH2CO}-[Nle][4Pal][Dap(Me)][Trp(7-aza)][NMeE]N[4Pal][Trp(7-Cl)][αMeS][Phe(4-COOH)]Y[Sar][αMeW]C-NH2; thioether N-14) | 8.72 | 8.92 | < 6.00 | –
CN1CC(=O)N[C@@H](Cc2c[nH]c3cccc(Cl)c23)C(=O)N[C@H](C(N)=O)CSCC(=O)N[C@@H](CCC(N)=O)C(=O)N[C@@H](Cc2ccncc2)C(=O)N[C@@H](CO)C(=O)N[C@@H](Cc2c[nH]c3ncccc23)C(=O)N(C)[C@@H](CCC(=O)O)C(=O)N[C@@H](CC(N)=O)C(=O)N[C@@H](Cc2ccncc2)C(=O)N[C@@H](Cc2c[nH]c3c(Cl)cccc23)C(=O)N[C@@](C)(CO)C(=O)N[C@@H](Cc2ccc(C(=O)O)cc2)C(=O)N[C@@H](Cc2ccc(O)cc2)C1=O [SEQ ID NO. 239] ({CH2CO}-Q[4Pal]S[Trp(7-aza)][NMeE]N[4Pal][Trp(7-Cl)][αMeS][Phe(4-COOH)]Y[Sar][Trp(4-Cl)]C-NH2; thioether N-14) | 9.28 | 9.52 | < 6.00 | 9.21
CCCC[C@@H]1NC(=O)[C@@H]2CC[C@@H](C2)NC(=O)[C@H]([C@@H](C)c2c[nH]c3c(OC)cccc23)NC(=O)CN(C)C(=O)[C@H](Cc2ccc(OC)cc2)NC(=O)[C@H](Cc2ccc(C(=O)O)cc2)NC(=O)[C@](C)(CO)NC(=O)[C@H](Cc2c[nH]c3c(Cl)cccc23)NC(=O)[C@H](Cc2ccc(C(N)=O)cc2)NC(=O)[C@H](CCC(N)=O)NC(=O)[C@H](CCC(=O)O)N(C)C(=O)[C@H](Cc2c[nH]c3ccccc23)NC(=O)[C@@H]2CNCCN2C(=O)[C@H](Cc2ccncc2)NC1=O [SEQ ID NO. 240] (cyclo([4Pal][Pip(4-aza)]W[NMeE]Q[Phe(4-CONH2)][Trp(7-Cl)][αMeS][Phe(4-COOH)]Y(Me)[Sar][Trp(βS-Me,7-OMe)][X1][Nle])) | – | 10.05 | < 6.00 | 9.64
CN1CC(=O)N[C@@H](Cc2c[nH]c3ccccc23)C(=O)N[C@H](C(N)=O)CSCC(=O)N[C@@H](CCCCN)C(=O)N[C@@H](Cc2ccc(O)cc2)C(=O)N[C@@H](CO)C(=O)N[C@@H](Cc2c[nH]c3ccccc23)C(=O)N2CCC[C@@H]2C(=O)N[C@@H](CCC(N)=O)C(=O)N[C@@H](Cc2ccncc2)C(=O)N[C@@H](Cc2c[nH]c3ccccc23)C(=O)N[C@@](C)(CO)C(=O)N[C@@H](Cc2ccc(C(=O)O)cc2)C(=O)N[C@@H](Cc2ccc(O)cc2)C1=O [SEQ ID NO. 242] ({CH2CO}-KYSW[dP]Q[4Pal]W[αMeS][Phe(4-COOH)]Y[Sar]WC-NH2; thioether N-14) | 8.92 | 9.52 | < 6.00 | –
